The values below come from PubChem BioAssay AID651773 (Broad Institute, 2012).

Several values for one entry are separate records, joined by “and”; a condition that tells them apart may be missing. Equal values may be shown once. Records with an inconclusive call do not appear.

The test system of this assay is SK-MEL-5 MITF mRNA qPCR, delta-delta-Ct, overnight. Nature of the assay: MITF transcript level reduction in melanoma cells – cell-based, RT-qPCR, SK-MEL-5, dry powder, dose response (AID 651773). (In general: Quantitative PCR measures a nucleic acid by following its amplification.)
As to `O=C1C=C(NS(=O)(=O)c2ccc(Br)cc2)C(=O)c2ccccc21`, the AC40 is 631 nM.
Take `NC1=C(NS(=O)(=O)c2ccc(Br)cc2)C(=O)c2ccccc2C1=O`: the AC40 was 4920 nM.
The same measure for `O=C1C(Nc2ccc(Cl)cc2)=C(N2CCCC2)C(=O)c2ccccc21`: 9480 nM; for `O=C1C(NS(=O)(=O)c2cccs2)=C(c2ccccc2)C(=O)c2ccccc21`: 4940 nM; for `C=CCNC1=C(Cl)C(=O)c2ccccc2C1=O`: 276 nM.
The same measure for `O=C1C(Nc2ccc(Br)cc2)=C(N2CCCCC2)C(=O)c2ccccc21`: 9490 nM.
The same measure for `O=C1C(Nc2ccc(F)cc2)=C(N2CCCCC2)C(=O)c2ccccc21`: 6700 nM.
In the case of `CCN1CCN(C2=C(NC(=O)c3ccccc3)C(=O)c3ccccc3C2=O)CC1`, the AC40 is 1280 nM.
Consider `CN1CCN(C2=C(NS(=O)(=O)c3ccc(Br)s3)C(=O)c3ccccc3C2=O)CC1`, for which the AC40 was 1330 nM.
As for `NC1=C(NC(=O)c2ccccc2)C(=O)c2ccccc2C1=O`, the figure is 357 nM; as for `NC1=C(NS(=O)(=O)c2ccccc2)C(=O)c2ccccc2C1=O`, 2760 nM; as for `O=C1C=C(NS(=O)(=O)c2ccccc2)C(=O)c2ccccc21`, 196 nM.
As for `CC(C)N1CCN(C2=C(Nc3ccc(F)cc3)C(=O)c3ccccc3C2=O)CC1`, the figure is 5510 nM.
`COC1=C(NS(=O)(=O)c2ccc(Br)cc2)C(=O)c2ccccc2C1=O`: the AC40 was 6510 nM.
The same measure for `O=C1C=C(Nc2ccccc2)C(=O)c2ccccc21`: 175 nM and 189 nM.
The same measure for `O=C1C=C(NS(=O)(=O)c2cccs2)C(=O)c2ccccc21`: 542 nM.
The same measure for `NC1=C(NS(=O)(=O)c2cccs2)C(=O)c2ccccc2C1=O`: 1550 nM; for `NC1=CC(=O)c2ccccc2C1=O`: 372 nM; for `O=C1C=C(Nc2ccc([N+](=O)[O-])c(C(F)(F)F)c2)C(=O)c2ccccc21`: 86.8 nM.
`COC1=C(NS(=O)(=O)c2ccccc2)C(=O)c2ccccc2C1=O`: the AC40 is 1840 nM.
For the molecule `O=C1C(Nc2ccccc2)=C(c2ccccc2)C(=O)c2ccccc21`, the AC40 is 5040 nM.
Turning to `COC1=C(NS(=O)(=O)c2cccs2)C(=O)c2ccccc2C1=O`, the AC40 is 7800 nM.
As for `CC(C)N1CCN(C2=C(Nc3ccc(F)cc3F)C(=O)c3ccccc3C2=O)CC1`, the figure is 1590 nM.
In the case of `O=C(NC1=C(Cl)C(=O)c2ccccc2C1=O)c1ccccc1`, the AC40 is 179 nM.
With `CCN1CCN(C2=C(NS(=O)(=O)c3ccc(Br)cc3)C(=O)c3ccccc3C2=O)CC1`, the AC40 was 3650 nM.
Consider `NS(=O)(=O)c1ccc(NC2=CC(=O)c3ccccc3C2=O)cc1`, for which the AC40 is 115 nM.
The same measure for `COC1=C(Nc2ccccc2)C(=O)c2ccccc2C1=O`: 386 nM; for `CN1CCN(C2=C(Nc3ccc(F)cc3F)C(=O)c3ccccc3C2=O)CC1`: 1820 nM.
The same measure for `Cc1ccc(NC2=CC(=O)c3ccccc3C2=O)cc1`: 1650 nM.
Consider `O=C1C(Nc2cccc(Cl)c2)=C(N2CCCC2)C(=O)c2ccccc21`, for which the AC40 was 10200 nM.
As for `CCN1CCN(C2=C(Nc3ccc(F)cc3F)C(=O)c3ccccc3C2=O)CC1`, the figure is 2280 nM.
